# Results: PMC2775441 (Pediatric blood & cancer, 2009)
# Marks after values point to notes of the source that are not given here.
# Legend:
# [1] = adults, interval between successive doses less than 7 days; ref [20]; cited from earlier work
# CYP3A4 = settings: ref [33], [39]; cited from earlier work
# [2] = test system: refractory pediatric central nervous system tumors; assay: Tumor response by neuro-imaging; assay type: in vivo, human
# [3] = Phase I dose escalation: dose-limiting toxicity, MTD and adverse events; settings: human, in vivo
# [4] = adults with solid tumors, ref [16], [18], [23]–[25], [30], cited from earlier work
# [5] = ref [11]; cited from earlier work
# [6] = Plasma pharmacokinetics of SU5416 and its metabolites; assay type: in vivo, human; settings: for half-life: human, plasma, iv
# [7] = Stratum I (no EIACD), 110 mg/m^2 IV, week 1, 13 patients, mean ± SD
# [8] = Stratum I (no EIACD), 110 mg/m^2 IV, week 6, 10 patients, mean ± SD
# [9] = Stratum I (no EIACD), 145 mg/m^2 IV, week 1, 6 patients, mean ± SD
# [10] = Stratum I (no EIACD), 145 mg/m^2 IV, week 6, 3 patients, mean ± SD
# [11] = Stratum I (no EIACD), all doses IV, week 6, 13 patients, mean ± SD
# [12] = Stratum II (EIACD), 35 mg/m^2 IV, week 1, 1 patient
# [13] = Stratum II (EIACD), 48 mg/m^2 IV, week 1, 2 patients, mean ± SD
# [14] = Stratum II (EIACD), 65 mg/m^2 IV, week 1, 6 patients, mean ± SD
# [15] = Stratum II (EIACD), all doses IV, week 1, 9 patients, mean ± SD
# [16] = Stratum I (no EIACD), SU5416 110 mg/m^2 IV, week 1, 13 patients, mean ± SD
# [17] = Stratum I (no EIACD), SU5416 110 mg/m^2 IV, week 6, 10 patients, mean ± SD
# [18] = Stratum I (no EIACD), SU5416 145 mg/m^2 IV, week 1, 6 patients, mean ± SD
# [19] = Stratum I (no EIACD), SU5416 145 mg/m^2 IV, week 6, 3 patients, mean ± SD
# [20] = Stratum I (no EIACD), all SU5416 doses IV, week 1, 19 patients, mean ± SD
# [21] = Stratum I (no EIACD), all SU5416 doses IV, week 6, 13 patients, mean ± SD
# [22] = Stratum II (EIACD), SU5416 35 mg/m^2 IV, week 1, 1 patient
# [23] = Stratum II (EIACD), SU5416 48 mg/m^2 IV, week 1, 2 patients, mean ± SD
# [24] = Stratum II (EIACD), SU5416 65 mg/m^2 IV, week 1, 6 patients, mean ± SD
# [25] = Stratum II (EIACD), all SU5416 doses IV, week 1, 9 patients, mean ± SD
smiles,measurement,setting,value
"Cc1cc(C)c(/C=C2\C(=O)Nc3ccccc32)[nH]1 [SU5416, semaxanib]",increase of clearance upon repeated administration,[1],more than 50%
same,role of CYP3A4 in elimination of SU5416,CYP3A4,major isozyme catalyzing the initial oxidation
same,Stable Disease Duration (months),"[2]; Pt 1, Glioblastoma Multiforme, Spinal Cord",5.3 months
same,Change from baseline (%),"[2]; Pt 1, Glioblastoma Multiforme, tumor size, 1.4 months from treatment",0%
same,Stable Disease Duration (months),"[2]; Pt 3, Choroid Plexus Carcinoma, Cerebrum",14.3 months
same,Tumor size,"[2]; Pt 8, Glioblastoma Multiforme, FLAIR, 2.7 months from treatment, baseline 32.7",35.5 cm^3
same,Tumor size,"[2]; Pt 8, Glioblastoma Multiforme, FLAIR, 8.1 months from treatment, baseline 32.7",29.1 cm^3
same,Tumor size,"[2]; Pt 8, Glioblastoma Multiforme, FLAIR, 9.7 months from treatment, baseline 32.7",23.9 cm^3
same,Tumor size,"[2]; Pt 8, Glioblastoma Multiforme, FLAIR, 11.1 months from treatment, baseline 32.7",30.5 cm^3
same,Tumor size,"[2]; Pt 8, Glioblastoma Multiforme, FLAIR, 15.9 months from treatment, baseline 32.7",28.9 cm^3
same,Stable Disease Duration (months),"[2]; Pt 8, Glioblastoma Multiforme, Parietal lobe",15.9 months
same,Stable Disease Duration (months),"[2]; Pt 19, Astrocytoma, Anaplastic, Frontal lobe",10.6 months
same,Tumor size,"[2]; Pt 26, Astrocytoma, NOS, Enhancement, 2.6 months from treatment, baseline 28.1",31.9 cm^2
same,Tumor size,"[2]; Pt 26, Astrocytoma, NOS, Enhancement, 4.4 months from treatment, baseline 28.1",34.7 cm^2
same,Tumor size,"[2]; Pt 26, Astrocytoma, NOS, Enhancement, 5.9 months from treatment, baseline 28.1",34.7 cm^2
same,Stable Disease Duration (months),"[2]; Pt 26, Astrocytoma, NOS, Supratentorial",5.9 months
same,Radiographic response after course 1: CR or PR (number of patients),"[2]; Stratum I, 16 evaluable",0
same,Radiographic response after course 1: PD (number of patients),"[2]; Stratum I, 16 evaluable",10
same,Radiographic response after course 1: PD (percent of evaluable patients),"[2]; Stratum I, 16 evaluable",63%
same,Radiographic response after course 1: SD (number of patients),"[2]; Stratum I, 16 evaluable",6
same,Radiographic response after course 1: SD (percent of evaluable patients),"[2]; Stratum I, 16 evaluable",38%
same,patients with sustained (prolonged) stable disease of possible clinical benefit,"[2]; Stratum I, patients evaluable for response",4 of 16
same,Radiographic response after course 1: CR or PR (number of patients),"[2]; Stratum II, 6 evaluable",0
same,Radiographic response after course 1: PD (number of patients),"[2]; Stratum II, 6 evaluable",5
same,Radiographic response after course 1: PD (percent of evaluable patients),"[2]; Stratum II, 6 evaluable",83%
same,Radiographic response after course 1: SD (number of patients),"[2]; Stratum II, 6 evaluable",1
same,Radiographic response after course 1: SD (percent of evaluable patients),"[2]; Stratum II, 6 evaluable",17%
same,objective responses,[2]; either stratum,No objectives responses
same,most serious drug-related toxicities,[3],"grade 3 liver enzyme abnormalities, arthralgia and hallucinations"
same,MTD in adults,[4]; intravenously twice weekly,145 mg/m^2
same,Dose-limiting toxicities in adults,[4],"headache, nausea, and vomiting"
same,penetration into the CSF,[5],does not penetrate the CSF
same,CL (total body clearance),[6]; [7],28.7 ± 12.8 ^a liter/h/m^2
same,Vz (apparent volume of distribution),[6]; [7],43.3 ± 20.3 liter/m^2
same,CL (total body clearance),[6]; [8],38.0 ± 28.7 liter/h/m^2
same,Vz (apparent volume of distribution),[6]; [8],65.5 ± 26.7 liter/m^2
same,CL (total body clearance),[6]; [9],21.3 ± 11.5 liter/h/m^2
same,Vz (apparent volume of distribution),[6]; [9],39.1 ± 24.8 liter/m^2
same,CL (total body clearance),[6]; [10],26.1 ± 17.1 liter/h/m^2
same,Vz (apparent volume of distribution),[6]; [10],37.2 ± 33.5 liter/m^2
same,CL (total body clearance),[6]; [11],34.9 ± 24.9 liter/h/m^2
same,Vz (apparent volume of distribution),[6]; [11],57.5 ± 34.6 liter/m^2
same,CL (total body clearance),[6]; [12],33.1 liter/h/m^2
same,Vz (apparent volume of distribution),[6]; [12],23.5 liter/m^2
same,CL (total body clearance),[6]; [13],48.0 ± 5.1 liter/h/m^2
same,Vz (apparent volume of distribution),[6]; [13],74.3 ± 71.7 liter/m^2
same,CL (total body clearance),[6]; [14],27.8 ± 11.4 liter/h/m^2
same,Vz (apparent volume of distribution),[6]; [14],45.5 ± 26.7 liter/m^2
same,CL (total body clearance),[6]; [15],32.0 ± 13.1 liter/h/m^2
same,Vz (apparent volume of distribution),[6]; [15],47.1 ± 30.6 liter/m^2
same,half-life,"[6]; 48 mg/m2, t1/2,z (terminal phase half-life), Stratum II (EIACD), 48 mg/m^2 IV, week 1, 2 patients, mean ± SD",1.07 ± 0.9 h
same,half-life,"[6]; 65 mg/m2, t1/2,z (terminal phase half-life), Stratum II (EIACD), 65 mg/m^2 IV, week 1, 6 patients, mean ± SD",1.13 ± 0.62 h
Cc1cc(CO)[nH]c1/C=C1\C(=O)Nc2ccccc21 [SU9838],"Relative extent of metabolism (%), AUC(0-t) metabolite/parent: SU9838",[6]; [16],3.95 ± 1.59%
same,"Relative extent of metabolism (%), AUC(0-t) metabolite/parent: SU9838",[6]; [17],4.41 ± 2.28%
same,"Relative extent of metabolism (%), AUC(0-t) metabolite/parent: SU9838",[6]; [18],3.98 ± 2.13%
same,"Relative extent of metabolism (%), AUC(0-t) metabolite/parent: SU9838",[6]; [19],5.24 ± 0.81%
same,"Relative extent of metabolism (%), AUC(0-t) metabolite/parent: SU9838",[6]; [20],3.96 ± 1.68%
same,"Relative extent of metabolism (%), AUC(0-t) metabolite/parent: SU9838",[6]; [21],4.59 ± 2.11%
same,"Relative extent of metabolism (%), AUC(0-t) metabolite/parent: SU9838",[6]; [22],2.44%
same,"Relative extent of metabolism (%), AUC(0-t) metabolite/parent: SU9838",[6]; [23],4.07 ± 1.37%
same,"Relative extent of metabolism (%), AUC(0-t) metabolite/parent: SU9838",[6]; [24],5.72 ± 3.41%
same,"Relative extent of metabolism (%), AUC(0-t) metabolite/parent: SU9838",[6]; [25],4.82 ± 2.69%
Cc1cc(C(=O)O)[nH]c1C=C1C(=O)Nc2ccccc21 [SU6595],"Relative extent of metabolism (%), AUC(0-t) metabolite/parent: SU6595",[6]; [16],57.4 ± 36.4%
same,"Relative extent of metabolism (%), AUC(0-t) metabolite/parent: SU6595",[6]; [17],72.9 ± 43.9%
same,"Relative extent of metabolism (%), AUC(0-t) metabolite/parent: SU6595",[6]; [18],37.4 ± 25.3%
same,"Relative extent of metabolism (%), AUC(0-t) metabolite/parent: SU6595",[6]; [19],72.4 ± 26.1%
same,"Relative extent of metabolism (%), AUC(0-t) metabolite/parent: SU6595",[6]; [20],50.1 ± 33.2%
same,"Relative extent of metabolism (%), AUC(0-t) metabolite/parent: SU6595",[6]; [21],72.8 ± 39.1%
same,"Relative extent of metabolism (%), AUC(0-t) metabolite/parent: SU6595",[6]; [22],55.2%
same,"Relative extent of metabolism (%), AUC(0-t) metabolite/parent: SU6595",[6]; [23],26.4 ± 1.1%
same,"Relative extent of metabolism (%), AUC(0-t) metabolite/parent: SU6595",[6]; [24],57.3 ± 20.4%
same,"Relative extent of metabolism (%), AUC(0-t) metabolite/parent: SU6595",[6]; [25],48.1 ± 21.3%
